In data set [1] the test system is blood cancer cells (Jurkat). Nature of the data set: Apoptosis test (Sub G1, propidium iodide, flow cytometry). The data set is classed as cell-based, human. The method, then: Cancer cells as used in the experiment were human lung cancer cells (NCI-H460, Korean Cell Line Bank), human breast cancer cells (MDA-MB-231, American Type Culture Collection (ATCC)), human uterine cervical cancer cells (HeLa, Korean Cell Line Bank), and blood cancer cells (Jurkat, ATCC). These cancer cells were cultured in RPMI 1640 media containing 10% FBS, penicillin, and streptomycin (GIBCO BRL). The apoptosis tests were carried out at human lung cancer cells, breast cancer cells, uterine cervical cancer cells, and blood cancer cells as follows: Phytosphingosine or a derivative thereof was dissolved in DMSO. Samples of the resultant solution of different concentration levels (1, 2, 5, 10, 15, 20 μg/ml) were prepared. According to the following treatment schedule, phytosphingosine treated cancer cells were cultured, washed with PBS (phosphate buffered saline), and fixed with 70% ethanol. The fixed cells were again washed with PBS, suspended in PBS, and 1 mg/ml of RNase was added thereto. Then, DNA was stained with 50 μg/ml of propidium iodide fluorescent dye and the change in the Sub G1 was analyzed by flow cytometry (Becton DICKINSON). The Sub G1, a marker of apoptotic cell death, means DNA distribution lower than that in the G1 phase of cell cycle. (1-1) In order to determine an anticancer effect of phytosphingosine, 5 ml of 10 μg/ml of phytosphingosine was added to respective dishes containing lung cancer cells, breast cancer cells, uterine cervical cancer cells, and blood cancer cells. (1-2) In order to examine a correlation of an anticancer effect with the phytosphingosine concentration and post-treatment culture time, each 5 ml of 2, 5, 10, and 15 μg/ml of phytosphingosine was added to respective human uterine cervical cancer cell-containing dishes and human breast cancer cell-containing dishes. In addition, each 5 ml of 5, 10, 15, and 20 μg/ml of phytosphingosine was added to respective human lung cancer cell-containing dishes, and each 5 ml of 1, 5, 10, and 20 μg/ml of phytosphingosine was added to respective human blood cancer cell-containing dishes.

The subject of data set [2] is human lung cancer cells. The experiment in a line: Analysis of mitochondrial membrane potential (DioC6(3), flow cytometry) and cytochrome c release. Format: cell-based. Conditions: 10 μg/ml phytosphingosine. The method, then:
(§1) Human lung cancer cells and blood cancer cells were cultured under the same condition as in the apoptosis test and were treated with 10 ml of phytosphingosine (10 μg/ml of phytosphingosine for lung cancer cells, and 5 μg/ml and 10 μg/ml of phytosphingosine for blood cancer cells). Then, the analysis of mitochondrial membrane potential and western blotting was carried out. Mitochondria were stained with 30 nM of a specific DioC6(3) dye (Calbiochem) for 30 minutes and culture media were removed. Then, lung cancer cells were twice washed with PBS and the membrane potential was analyzed by flow cytometry.
Background: Flow cytometry measures light scatter and fluorescence of single cells or particles in a stream.

Data set [3] relates to human blood cancer cells. The experiment in a line: Analysis of mitochondrial membrane potential and cytochrome c release. The conditions noted are these: 5 and 10 μg/ml phytosphingosine. Format: cell-based. Here is the method:
as §1

The subject of data set [4] is caspases in human blood cancer cells. The experiment in a line: Western blotting of caspase-3, caspase-8, caspase-9 and PARP. Format: cell-based. Conditions: 5 and 10 μg/ml phytosphingosine, FIG. 10. Here is the method:
(§2) Human lung cancer cells and blood cancer cells were cultured under the same condition as in the apoptosis test and were treated with 10 ml of phytosphingosine (10 μg/ml of phytosphingosine for lung cancer cells, and 5 μg/ml and 10 μg/ml of phytosphingosine for blood cancer cells). Then, the analysis of mitochondrial membrane potential and western blotting was carried out. Phytosphingosine-treated human lung cancer cells and blood cancer cells were dissolved in a protease inhibitor-containing lysis buffer (40 mM Tris-Cl (pH 8.0), 120 mM NaCl, 0.1% […]) and centrifuged to give a protein extract. Pure proteins were isolated from the protein extract using SDS-PAGE and transferred to a nitrocellulose membrane. The protein-bound nitrocellulose membrane was blocked with skim milk and incubated with as caspase-3, caspase-8, caspase-9, and poly(ADP-ribose)polymerase (PARP) as primary antibodies at room temperature for one hour. The primary antibodies-bound nitrocellulose membranes were three times washed with PBS-T (phosphate buffered saline, 0.1% Tween-20) and incubated with HRP (Horse Radish Peroxidase)-conjugated secondary antibodies for one hour. The expression of caspase-3, caspase-8, caspase-9, and PARP was detected using ECL reagent (PerkinElmer Life Science, Inc.).
For orientation: In western blotting, separated proteins are transferred to a membrane and probed.

In data set [5] the test system is caspases in human lung cancer cells. The data set is described as above. Format: cell-based. Conditions: 10 μg/ml phytosphingosine, FIG. 10. The method, then:
as §2

Data set [6] has as its system human lung cancer cells. The experiment in a line: Colony formation test in combination with radiation. The data set is classed as cell-based. Conditions: FIG. 12. Here is the method: Colony formation tests were carried out in human lung cancer cells, breast cancer cells, and uterine cervical cancer cells as follows:
Respective sphingosine, phytosphingosine, C6PS, and C8PS were dissolved ethanol to produce specimens. About 600 cells (for each cancer) were plated in a dish with a diameter of 60 mm and incubated in a CO2 incubator at 37° C. for a day. Then, the cancer cells were treated with the specimens in combination with radiation and were continuously cultured. When suitable colonies were formed, the cancer cells were fixed with a fixing solution (methanol/acetic acid=3:1) and stained with trypan blue. Then, the number of the colonies was counted and the results were evaluated in a comparative manner.

Data set [7] has as its system human blood cancer cells. Nature of the data set: Apoptosis test with or without radiation. The conditions noted are these: 5 μg/ml in combination with radiation. The data set is classed as cell-based. The method, then:
(§3) (1) Each 5 ml of 20 μg/ml of phytosphingosine and derivatives thereof were added to human lung cancer cell-containing dishes. Some cells were cultured without radiation and others were cultured with radiation with dose of 4 Gy. This apoptosis test was carried out in the same manner in the Experiment 1. Specimens used in this apoptosis test are as follows:
(§4) Control (Cont), IR, PS, PS+IR, C4PS, C4PS+IR, C6PS, C6PS+IR, C8PS, C8PS+IR, C12PS, C12PS+IR.
(§5) (2) Apoptosis tests for human blood cancer cells, uterine cervical cancer cells, and breast cancer cells were carried out in the same manner as in the above (1) except using 5 μg/ml of phytosphingosine and derivatives thereof.

The subject of data set [8] is human breast cancer cells. Nature of the data set: Apoptosis test with or without radiation. The data set is classed as cell-based. Conditions: 5 μg/ml in combination with radiation, FIG. 17. Here is the method:
as §3, §4, §5

Data set [9] deals with human uterine cervical cancer cells. The experiment in a line: Apoptosis test with or without radiation. The data set is classed as cell-based. Conditions: 5 μg/ml in combination with radiation, FIG. 17. The method, then: as §3, §4, §5
A further data set in a line: Acute oral toxicity test. Conditions: rat, in vivo, rats. Here is the method:
(§6) Royal Gist-Brocades N.V. (Netherlands) was asked to perform tests for acute oral toxicity and dermal irritation, and Ames tests of phytosphingosine and derivatives thereof.
In the acute oral toxicity test, the LD50 (the […]) value amounted to 2,000 mg/kg or more in rats.

The nature of another data set: Dermal irritation test. Format: in vivo. The conditions noted are these: rabbits.
From the text: as §6

Another data set in a line: Ames test.
From the text: as §6
In general terms: The Ames test detects mutagens through reverse mutation in bacteria.

From US20090176888A1, “COMPOSITION COMPRISING PHYTOSPHINGOSINE OR DERIVATIVE THEREOF” (KOREA INSTITUTE OF RADIOLOGICAL & MEDICAL SCIENCES, priority 2003, published 2009) come the findings set out here.

SMILES strings stand for the structures. Bounds are passed on as bounds.

One may read the LD50 as the dose at which mortality reaches 50%. Higher therefore signals a less toxic substance.

Turning to `CCCCCCCCCCCCCC[C@@H](O)[C@@H](O)[C@@H](N)CO` [phytosphingosine], the apoptosis in data set [1] (5 μg/ml or more, culture of 6 hours or more, FIG. 6) is listed as at least 50%; in data set [1] (5 μg/ml, at 3-6 hours after treatment), at least 50%; in data set [1] (10 μg/ml or more, culture of 3 hours or more, FIG. 6), at least 50%. Moreover, in [1] (10 μg/ml phytosphingosine, test (1-1), FIG. 1), the apoptotic rate is at least 50%. Further, the “release of cytochrome c from mitochondria” value is on record as “increased” in the data set with human lung cancer cells [2] (FIGS. 7, 9) and “increased” in the data set on human blood cancer cells [3]. Further, the mitochondrial membrane potential entry in the data set with human lung cancer cells [2] (FIGS. 7-8) and in the data set on human blood cancer cells [3] was “decreased” throughout. Also, the “activities of the caspases” value in data set [4] and in data set [5] was “considerably increased” throughout. Besides, in the data set on human lung cancer cells [6] (PS in combination with radiation), the “reduction of tumor growth, concurrent treatment vs radiation, sphingosine or PS alone” value was at least 30%. In addition, the “sensitizer enhancement ratio (SER)” value in the data set with human lung cancer cells [6] (in combination with radiation) is given as 1.21. The “increase of apoptotic rate, concurrent treatment vs PS or radiation alone” value with human blood cancer cells [7] (FIG. 15) was at least 20%; in the data set on human blood cancer cells [7] (after 18 hours, FIG. 16), at least 15%. The “enhancement of radiosensitizing effect” value in [8] and in data set [9] was “excellent” in each case. This compound yielded an LD50 in the data set “Acute oral toxicity test” of at least 2000 mg/kg. In the data set “Dermal irritation test”, the dermal irritation entry is recorded as “did not cause dermal damages”. Moreover, in “Ames test”, the “mutagenicity (Ames test)” value is reported as “do not cause mutation”.
